The test system of one data set is Septoria tritici. Description: In vivo preventive test on Septoria tritici (leaf spot on wheat). Particulars: 500 ppm; wheat plants sprayed 24 hours before contamination; grading 21 to 28 days after contamination vs control plants. Here is the method:
Wheat plants (“Scipion” variety), sown in starter cups on a 50/50 peat soil-pozzolana substrate and grown at 22° C. (12 h)/20° C. (12 h), are treated at the 1-leaf stage (10 cm height) by spraying with the active ingredient prepared as described above. Plants, used as controls, are treated with the mixture of acetone/tween/DMSO/water not containing the active material. After 24 hours, the plants are contaminated by spraying the leaves with an aqueous suspension of cryopreserved Septoria tritici spores (500 000 spores per ml). […] Grading (% of efficacy) is carried out 21 to 28 days after the contamination, in comparison with the control plants.

The format of data set [1] is physicochemical.
[2] abbreviates: method [a]: HPLC/LC-MS on reversed phase at pH 2.7, 0.1% formic acid in water / acetonitrile, linear gradient 10% to 95% acetonitrile.
[3] abbreviates: HPLC on reversed phase columns, method [a]: pH 2.7, 0.1% formic acid in water / acetonitrile, linear gradient 10% to 95% acetonitrile.
Where [4] appears, read: method [a]: HPLC/LC-MS on reversed phase at pH 2.7, 0.1% formic acid in water / acetonitrile, gradient 10% to 95% acetonitrile.

Read-outs that look alike come from different tables or passages of the source.

Consider `Cc1ccc(CNC(=O)C2(C)CC(c3ccc4ncc(Br)cc4c3)=NO2)n1C` (centres unmarked) [compound 152], for which the “% of efficacy (protection)” value in the data set with Septoria tritici is recorded as 71%. Besides, in data set [1] (setting [2]), the “log P” value was 3.21^[a].
In the same order, the values of `C#Cc1cnc2ccc(C3=NOC(C)(C(=O)NCc4ccc(C)n4C)C3)cc2c1` (centres unmarked) [compound 153] are 71% and 2.88^[a].
In the same order, the values of `C#Cc1cnc2ccc(C3=NOC(C)(C(=O)NCc4ccc(Cl)nc4)C3)cc2c1` (centres unmarked) [compound 160] are 71% and 2.44^[a].
Turning to `Cc1nn(C(C)C)c(C)c1CNC(=O)C1(C)CC(c2ccc3ncc(Br)cc3c2)=NO1` (centres unmarked) [compound 184], the “% of efficacy (protection)” value in the data set on Septoria tritici stood at 71%. In addition, the “log P” value in data set [1] (setting [2]) is 2.6^[a].
Taken in the same sequence, the figures for `C#Cc1cnc2ccc(C3=NOC(C)(C(=O)NCc4cnn(-c5ccccc5)n4)C3)cc2c1` (centres unmarked) [compound 189] were 71% and 3.11^[a].
Taken in the same sequence, the figures for `CC1(C(=O)NCc2cn[nH]c2-c2cccs2)CC(c2ccc3ncc(Br)cc3c2)=NO1` (centres unmarked) [compound 191] were 71% and 2.51^[a].
Consider `C#Cc1cnc2ccc(C3=NOC(C)(C(=O)NCc4cn[nH]c4-c4cccs4)C3)cc2c1` (centres unmarked) [compound 192], for which the “% of efficacy (protection)” value with Septoria tritici is 71%. Besides, the “log P” value in data set [1] (setting [2]) was 2.25^[a].
Taken in the same sequence, the figures for `C#Cc1cnc2ccc(C3=NOC(C)(C(=O)NCC4CCC(=O)N4C)C3)cc2c1` (centres unmarked) [compound 213] were 97% and 1.65^[a].
Taken in the same sequence, the figures for `C#Cc1cnc2ccc(C3=NOC(C)(C(=O)NCC4CCCOC4c4ccccc4)C3)cc2c1` (centres unmarked) [compound 222] were 71% and 3.11^[a].
Taken in the same sequence, the figures for `C#Cc1cnc2ccc(C3=NOC(C)(C(=O)NCC4CCOc5ccccc54)C3)cc2c1` (centres unmarked) [compound 223] were 71% and 3.11^[a].
As to `CC1(C(=O)NCc2ccc3ncsc3c2)CC(c2ccc3ncc(Br)cc3c2)=NO1` (centres unmarked) [compound 243], the “% of efficacy (protection)” value in the data set with Septoria tritici is given as 71%. The “log P” value in data set [1] (setting [3]) is 2.7^[a].
Taken in the same sequence, the figures for `CCn1cc(CNC(=O)C2(F)CC(c3ccc4ncc(Br)cc4c3)=NO2)c(C)n1` (centres unmarked) [compound 279] were 75% and 2.38[a].
In the same order, the values of `CCn1cc(CNC(=O)C2(C)CC(c3ccc4nc(Cl)c(Br)cc4c3)=NO2)c(C)n1` (centres unmarked) [compound 286] are 92% and 3.12[a].
Regarding `CC(C)NC(=O)C1(C)CC(c2ccc3nc(Cl)c(Br)cc3c2)=NO1` (centres unmarked) [compound 287], the “% of efficacy (protection)” value with Septoria tritici was found to be 83%. Further, the “log P” value in data set [1] (setting [3]) was 3.46[a].
With `COC(CNC(=O)C1(C)CC(c2ccc3ncc(Br)cc3c2)=NO1)OC` (centres unmarked) [compound 290], in the data set with Septoria tritici, the “% of efficacy (protection)” value is 96%. In addition, in data set [1] (setting [3]), the “log P” value is 2.39[a].
Taken in the same sequence, the figures for `CC(NC(=O)C1(C)CC(c2ccc3ncc(Br)cc3c2)=NO1)c1ccccc1` (centres unmarked) [compound 292] were 96% and 3.46[a].
In the same order, the values of `CC(NC(=O)C1(C)CC(c2ccc3ncc(Br)cc3c2)=NO1)c1ccccc1Cl` (centres unmarked) [compound 294] are 70% and 3.85[a].
In the same order, the values of `CC(NC(=O)C1(C)CC(c2ccc3ncc(Br)cc3c2)=NO1)c1ccsc1` (centres unmarked) [compound 295] are 80% and 3.35[a].
Turning to `C=Cc1cnc2ccc(C3=NOC(C)(C(=O)NC(C)C)C3)cc2c1` (centres unmarked) [compound 304], the “% of efficacy (protection)” value with Septoria tritici was determined as 100%. Further, the “log P” value in data set [1] (setting [3]) was 2.20[a].
As for `CC1(C(=O)NC2CCOCC2)CC(c2ccc3ncc(Br)cc3c2)=NO1` (centres unmarked) [compound 307], the “% of efficacy (protection)” value with Septoria tritici was 100%. In data set [1] (setting [3]), the “log P” value was 2.27[a].
In the same order, the values of `CC(NC(=O)C1(C)CC(c2ccc3ncc(Br)cc3c2)=NO1)c1nccs1` (centres unmarked) [compound 310] are 100% and 2.56[a].
In the same order, the values of `CCC(NC(=O)C1(C)CC(c2ccc3ncc(Br)cc3c2)=NO1)c1cn(CC)nc1C` (centres unmarked) [compound 311] are 100% and 2.77[a].
In the same order, the values of `C#Cc1cnc2ccc(C3=NOC(C)(C(=O)NC(C)(C)C)C3)cc2c1` (centres unmarked) [compound 322] are 98% and 3.00[a].
As for `C#Cc1cnc2ccc(C3=NOC(C)(C(=O)NC(C)c4nc(C(C)C)no4)C3)cc2c1` (centres unmarked) [compound 329], the “% of efficacy (protection)” value in the data set on Septoria tritici came out at 100%. Besides, in data set [1] (setting [3]), the “log P” value is 2.94[a].
In the same order, the values of `C#Cc1cnc2ccc(C3=NOC(C)(C(=O)NC(C)C4CC4)C3)cc2c1` (centres unmarked) [compound 330] are 100% and 2.78[a].
In the same order, the values of `CC(C)c1noc(C(C)NC(=O)C2(C)CC(c3ccc4ncc(Br)cc4c3)=NO2)n1` (centres unmarked) [compound 331] are 83% and 3.23[a].
In the same order, the values of `C#Cc1cnc2ccc(C3=NOC(C)(C(=O)NC(C)c4sc(C)nc4C)C3)cc2c1` (centres unmarked) [compound 333] are 98% and 2.20[a].
In the case of `C#Cc1cnc2ccc(C3=NOC(C)(C(=O)NC(C)c4ccncc4)C3)cc2c1` (centres unmarked) [compound 335], the “% of efficacy (protection)” value with Septoria tritici is 78%. Besides, the “log P” value in data set [1] (setting [3]) was 1.28[a].
Regarding `C#Cc1cnc2ccc(C3=NOC(C)(C(=O)NC(C)c4cccc5ccccc45)C3)cc2c1` (centres unmarked) [compound 339], the “% of efficacy (protection)” value with Septoria tritici is recorded as 78%. Moreover, in data set [1] (setting [3]), the “log P” value is 3.85[a].
In the same order, the values of `C#Cc1cnc2ccc(C3=NOC(C)(C(=O)NC(CC)c4cn(CC)nc4C)C3)cc2c1` (centres unmarked) [compound 347] are 100% and 2.52[a].
In the same order, the values of `C#Cc1cnc2ccc(C3=NOC(C)(C(=O)NC(C)c4ccccc4Cl)C3)cc2c1` (centres unmarked) [compound 349] are 94% and 3.42[a].
Taken in the same sequence, the figures for `C#Cc1cnc2ccc(C3=NOC(C)(C(=O)NC(C)c4ccccc4)C3)cc2c1` (centres unmarked) [compound 350] were 100% and 3.06[a].
On to `C#CCCNC(=O)C1(C)CC(c2ccc3ncc(Br)cc3c2)=NO1` (centres unmarked) [compound 353], for which the “% of efficacy (protection)” value in the data set with Septoria tritici is 94%. The “log P” value in data set [1] (setting [3]) was 2.52[a].
Taken in the same sequence, the figures for `C#Cc1cnc2ccc(C3=NOC(C)(C(=O)NC(c4cccc(Cl)c4)C(F)(F)F)C3)cc2c1` (centres unmarked) [compound 357] were 78% and 3.94[a].
Taken in the same sequence, the figures for `C#Cc1cnc2ccc(C3=NOC(C)(C(=O)NC(CN4CCCC4)C4CC4)C3)cc2c1` (centres unmarked) [compound 361] were 78% and 1.37[a].
As for `COC1(C(=O)N(C)C)CC(c2ccc3ncc(Br)cc3c2)=NO1` (centres unmarked) [compound 396], the “% of efficacy (protection)” value with Septoria tritici was 97%. Moreover, the “log P” value in data set [1] (setting [4]) was 2.51[a].
Taken in the same sequence, the figures for `COC1(C(=S)NC(C)C)CC(c2ccc3ncc(Br)cc3c2)=NO1` (centres unmarked) [compound 410] were 100% and 3.69[a].
In the same order, the values of `CCOC1(C(=O)NCc2cn(CC)nc2C)CC(c2ccc3ncc(Br)cc3c2)=NO1` (centres unmarked) [compound 416] are 100% and 1.95[a].
As for `CCOc1cnc2ccc(C3=NOC(C)(C(=O)NCc4cn(CC)nc4C)C3)cc2c1` (centres unmarked) [compound 417], the “% of efficacy (protection)” value in the data set with Septoria tritici is reported as 100%. The “log P” value in data set [1] (setting [4]) is 2.09[a].
Taken in the same sequence, the figures for `C#Cc1cnc2ccc(C3=NOC(OC)(C(=O)N(OC)C(C)CC)C3)cc2c1` (centres unmarked) [compound 466] were 97% and 3.31[a].
Taken in the same sequence, the figures for `C#Cc1cnc2ccc(C3=NOC(OC)(C(=O)N(C(C)C)C4CC4)C3)cc2c1` (centres unmarked) [compound 467] were 97% and 3.35[a].
Taken in the same sequence, the figures for `C#Cc1cnc2ccc(C3=NOC(OC)(C(=O)N(OC)C(C)C)C3)cc2c1` (centres unmarked) [compound 468] were 100% and 2.96[a].
For the compound `CCn1cc(CNC(=O)C2(C)CC(c3ccc4nc(OC)c(I)cc4c3)=NO2)c(C)n1` (centres unmarked) [compound 472], in the data set on Septoria tritici, the “% of efficacy (protection)” value is listed as 75%. In addition, the “log P” value in data set [1] (setting [4]) was 3.11[a].
On to `C#Cc1cnc2ccc(C3=NOC(OC)(C(=O)NCC(O)CO)C3)cc2c1` (centres unmarked) [compound 473], for which the “% of efficacy (protection)” value in the data set on Septoria tritici is 75%. The “log P” value in data set [1] (setting [4]) is 1.44[a].
Taken in the same sequence, the figures for `CCn1cc(NC(=O)C2(C)CC(c3ccc4ncc(Br)cc4c3)=NO2)c(C)n1` (centres unmarked) [compound 489] were 93% and 2.50[a].
As to `C#Cc1cc2cc(C3=NOC(C)(C(=O)NCc4cn(CC)nc4C)C3)ccc2nc1OC` (centres unmarked) [compound 490], the “% of efficacy (protection)” value in the data set with Septoria tritici is given as 88%. Also, the “log P” value in data set [1] (setting [4]) is 2.55[a].
Taken in the same sequence, the figures for `C#Cc1cc2cc(C3=NOC(C)(C(=O)NCc4cn(CC)nc4C)C3)ccc2nc1C#N` (centres unmarked) [compound 491] were 75% and 2.39[a].
As for `C#Cc1cnc2ccc(C3=NOC(CC)(C(=S)NCc4cn(CC)nc4C)C3)cc2c1` (centres unmarked) [compound 507], in the data set on Septoria tritici, the “% of efficacy (protection)” value worked out at 97%. The “log P” value in data set [1] (setting [4]) was 3.31[a].
Consider `C#Cc1cnc2ccc(C3=NOC(OC)(C(=O)NC(C)(C)c4ccon4)C3)cc2c1` (centres unmarked) [compound 509], for which the “% of efficacy (protection)” value with Septoria tritici came out at 97%. Further, the “log P” value in data set [1] (setting [4]) is 2.52[a].

(Values after patent US9510598B2, “Nitrogen-containing heterocyclic compounds for plant disease control” (BAYER CROPSCIENCE AG, priority 2012, dated 2016).)
